# Measurements as given in US20080103170A1, “Nicotinic Acetylcholine Receptor Ligands” (AstraZeneca AB, priority 2004, published 2008).
# Target: T1, α4 nAChR (Rattus norvegicus, UniProt P09483+P12390)
# T1 construct: from tissue; host or cells: rat cortical brain membranes
# Experiment: Affinity at α4 nAChR by [125I]-IPH binding to rat cortical membranes
# Details: saturation curves fitted to a one site model
# Procedure: Assay for Affinity at an α4 nAChR Receptor by Measuring the Binding of […] Binding to Rat Cortical Membranes
# A procedure modified from Martino-Barrows and Kellar (Mol Pharm (1987) 31:169-174) may be used. Rat cortical brain membranes are prepared as described in the [^125I]α-BTX binding assay, except that a 500-12000×g membrane fraction is prepared. Membranes (30-150 μg) are incubated with 30-100 pM of the epibatidine analog [^125I]-IPH ((+/−)-exo-2-(2-iodo-5-pyridyl)-7-azabicyclo-[2,2,1]heptane) together with test compound in HB for 1 hour at room temperature with gentle shaking. Membranes may be recovered as described for the [^125I]α-BTX binding assay. Non-specific binding may be determined by 100 μM carbachol. Typically specific binding is about 84%.
# Analysis of Binding Data Obtained in α7 nAChR or α4 nAChR Receptor Assays
# IC50 values and pseudo Hill coefficients (nH) may be calculated using the non-linear curve fitting program ALLFIT (DeLean A, Munson P J and Rodbard D (1977) Am. J. Physiol., 235:E97-E102). […] Ki values may be estimated using the general Cheng-Prusoff equation:
# Ki=[IC50]/((2+ligand/KD)^n)^1/n−1)
# where a value of n=1 is used whenever nH<1.5 and a value of n=2 is used when nH≧1.5. To account for variability, assays may be performed in triplicate and variability will typically be ±5%. Ki values may be determined using six to 11 drug concentrations.
# T1 sequence (P12390 25-500): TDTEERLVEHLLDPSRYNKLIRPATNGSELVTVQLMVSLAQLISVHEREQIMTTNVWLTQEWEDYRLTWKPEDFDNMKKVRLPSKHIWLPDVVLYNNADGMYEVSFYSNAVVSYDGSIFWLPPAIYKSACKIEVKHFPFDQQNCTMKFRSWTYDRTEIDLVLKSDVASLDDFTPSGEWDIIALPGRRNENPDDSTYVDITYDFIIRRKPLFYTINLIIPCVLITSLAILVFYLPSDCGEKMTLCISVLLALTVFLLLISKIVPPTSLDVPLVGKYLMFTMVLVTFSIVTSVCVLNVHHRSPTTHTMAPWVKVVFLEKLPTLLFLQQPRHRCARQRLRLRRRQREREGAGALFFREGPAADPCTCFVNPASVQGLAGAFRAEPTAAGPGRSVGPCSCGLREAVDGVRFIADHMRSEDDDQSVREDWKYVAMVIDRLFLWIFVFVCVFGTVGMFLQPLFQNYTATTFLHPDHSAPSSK
# T1 sequence (P09483 31-630): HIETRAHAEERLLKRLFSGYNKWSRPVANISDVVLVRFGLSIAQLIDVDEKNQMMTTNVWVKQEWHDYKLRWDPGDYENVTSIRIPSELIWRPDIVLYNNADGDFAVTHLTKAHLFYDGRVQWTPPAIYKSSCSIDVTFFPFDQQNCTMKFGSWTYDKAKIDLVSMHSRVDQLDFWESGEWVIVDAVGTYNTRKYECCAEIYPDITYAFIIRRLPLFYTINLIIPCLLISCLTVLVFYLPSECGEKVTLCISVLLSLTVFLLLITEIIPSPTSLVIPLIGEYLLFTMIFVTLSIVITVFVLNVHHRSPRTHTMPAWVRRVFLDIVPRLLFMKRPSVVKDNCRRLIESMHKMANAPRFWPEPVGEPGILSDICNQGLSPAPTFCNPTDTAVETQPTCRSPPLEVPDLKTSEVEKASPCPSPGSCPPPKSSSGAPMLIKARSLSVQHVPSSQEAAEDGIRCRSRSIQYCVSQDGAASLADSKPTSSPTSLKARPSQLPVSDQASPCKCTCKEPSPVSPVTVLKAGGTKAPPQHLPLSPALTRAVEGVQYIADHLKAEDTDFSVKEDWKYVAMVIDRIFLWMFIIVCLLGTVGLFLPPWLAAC
smiles,measurement,value
"Ic1ccc(C2CC3CCC2N3)cn1 (racemic) [[^125I]-IPH, (+/−)-exo-2-(2-iodo-5-pyridyl)-7-azabicyclo-[2,2,1]heptane]",Kd,0.064 nM
